The structures appear in SMILES notation.
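Further: luminescence signal used as surrogate measure of viable cells; spheroids exposed to compounds for seven days before readout; 100% = DMSO vehicle control viability as luminescence relative to vehicle.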

In the first test the test system is 429239-143-T-J1-PDC complex spheroid viability. The test can be described thus: Anticancer human tumor 429239-143-T-J1-PDC patient-derived small cell lung carcinoma cell line growth inhibition [POLQ]. As to conditions: second compound 0.316 µM; first compound 1 µM; stronger effect = lower value. The procedure, abridged:
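Patient-derived tumour cells were co-cultured with HUVEC and mesenchymal stem cells as multicellular spheroids at 37 °C. They were treated with POLQ inhibitors (novobiocin, ART-558, RP6685) alone or combined with other agents. Top concentrations were at or near clinical Cmax (otherwise 10 microM; SN-38 at 1 microM), decreasing in half-log steps.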
As for `C#Cc1c(F)ccc2cc(O)cc(-c3ncc4c(N5CC6CCC(C5)N6)nc(OCC56CCCN5CC(F)C6)nc4c3F)c12` (stereo unspecified) + Nc1ccc(C#CCN(C(=O)Cc2ncc(C(F)(F)F)cc2C(F)(F)F)c2ccc(F)cc2)nn1, the viability, T/C is 100%.

Consider `CC1COCCN1c1cc(C2(O)CC3CCC(C2)O3)c2cnn(-c3ccn[nH]3)c2n1` (stereo unspecified) + Nc1ccc(C#CCN(C(=O)Cc2ncc(C(F)(F)F)cc2C(F)(F)F)c2ccc(F)cc2)nn1, for which the viability, T/C is 7.06%.

`CCc1cc2c(N3CCc4c(cc(Cn5ccnc5)cc4-c4cn(C)nc4C(F)(F)F)C3=O)cc(C)nc2c(OC)n1` + Nc1ccc(C#CCN(C(=O)Cc2ncc(C(F)(F)F)cc2C(F)(F)F)c2ccc(F)cc2)nn1: the viability, T/C is 81.2%.

Consider `COc1cc2cc(C(=O)CCC(=O)O)sc2cc1OC` + Nc1ccc(C#CCN(C(=O)Cc2ncc(C(F)(F)F)cc2C(F)(F)F)c2ccc(F)cc2)nn1, for which the viability, T/C was 117%.

Regarding `O=C(Nc1ccc(O)c(NS(=O)(=O)c2ccc(F)cc2)c1)c1ccc(-c2ccccc2)cc1` + Nc1ccc(C#CCN(C(=O)Cc2ncc(C(F)(F)F)cc2C(F)(F)F)c2ccc(F)cc2)nn1, the viability, T/C was 108%.

Still in this test, the particulars now being: second compound 0.316 µM; first compound 3.16 µM; stronger effect = lower value.
`C#Cc1c(F)ccc2cc(O)cc(-c3ncc4c(N5CC6CCC(C5)N6)nc(OCC56CCCN5CC(F)C6)nc4c3F)c12` (stereo unspecified) + Nc1ccc(C#CCN(C(=O)Cc2ncc(C(F)(F)F)cc2C(F)(F)F)c2ccc(F)cc2)nn1: the viability, T/C is 99.9%.

Consider `CC1COCCN1c1cc(C2(O)CC3CCC(C2)O3)c2cnn(-c3ccn[nH]3)c2n1` (stereo unspecified) + Nc1ccc(C#CCN(C(=O)Cc2ncc(C(F)(F)F)cc2C(F)(F)F)c2ccc(F)cc2)nn1, for which the viability, T/C is 3.37%.

On to `CCc1cc2c(N3CCc4c(cc(Cn5ccnc5)cc4-c4cn(C)nc4C(F)(F)F)C3=O)cc(C)nc2c(OC)n1` + Nc1ccc(C#CCN(C(=O)Cc2ncc(C(F)(F)F)cc2C(F)(F)F)c2ccc(F)cc2)nn1, for which the viability, T/C was 63.4%.

As for `COc1cc2cc(C(=O)CCC(=O)O)sc2cc1OC` + Nc1ccc(C#CCN(C(=O)Cc2ncc(C(F)(F)F)cc2C(F)(F)F)c2ccc(F)cc2)nn1, the viability, T/C is 95.4%.

Regarding `O=C(Nc1ccc(O)c(NS(=O)(=O)c2ccc(F)cc2)c1)c1ccc(-c2ccccc2)cc1` + Nc1ccc(C#CCN(C(=O)Cc2ncc(C(F)(F)F)cc2C(F)(F)F)c2ccc(F)cc2)nn1, the viability, T/C is 116%.

The test is the same for the next values; noted with them: second compound 0.316 µM; first compound 10 µM; stronger effect = lower value.
Turning to `C#Cc1c(F)ccc2cc(O)cc(-c3ncc4c(N5CC6CCC(C5)N6)nc(OCC56CCCN5CC(F)C6)nc4c3F)c12` (stereo unspecified) + Nc1ccc(C#CCN(C(=O)Cc2ncc(C(F)(F)F)cc2C(F)(F)F)c2ccc(F)cc2)nn1, the viability, T/C is 96.9%.

Consider `CC1COCCN1c1cc(C2(O)CC3CCC(C2)O3)c2cnn(-c3ccn[nH]3)c2n1` (stereo unspecified) + Nc1ccc(C#CCN(C(=O)Cc2ncc(C(F)(F)F)cc2C(F)(F)F)c2ccc(F)cc2)nn1, for which the viability, T/C was 2.33%.

Turning to `CCc1cc2c(N3CCc4c(cc(Cn5ccnc5)cc4-c4cn(C)nc4C(F)(F)F)C3=O)cc(C)nc2c(OC)n1` + Nc1ccc(C#CCN(C(=O)Cc2ncc(C(F)(F)F)cc2C(F)(F)F)c2ccc(F)cc2)nn1, the viability, T/C was 48.1%.

In the case of `COc1cc2cc(C(=O)CCC(=O)O)sc2cc1OC` + Nc1ccc(C#CCN(C(=O)Cc2ncc(C(F)(F)F)cc2C(F)(F)F)c2ccc(F)cc2)nn1, the viability, T/C is 101%.

For `O=C(Nc1ccc(O)c(NS(=O)(=O)c2ccc(F)cc2)c1)c1ccc(-c2ccccc2)cc1` + Nc1ccc(C#CCN(C(=O)Cc2ncc(C(F)(F)F)cc2C(F)(F)F)c2ccc(F)cc2)nn1, the viability, T/C is 98.2%.

Staying with this test, now noted: second compound 1 µM; first compound 0.0316 µM; stronger effect = lower value.
For `C#Cc1c(F)ccc2cc(O)cc(-c3ncc4c(N5CC6CCC(C5)N6)nc(OCC56CCCN5CC(F)C6)nc4c3F)c12` (stereo unspecified) + Nc1ccc(C#CCN(C(=O)Cc2ncc(C(F)(F)F)cc2C(F)(F)F)c2ccc(F)cc2)nn1, the viability, T/C was 102%.

Consider `CC1COCCN1c1cc(C2(O)CC3CCC(C2)O3)c2cnn(-c3ccn[nH]3)c2n1` (stereo unspecified) + Nc1ccc(C#CCN(C(=O)Cc2ncc(C(F)(F)F)cc2C(F)(F)F)c2ccc(F)cc2)nn1, for which the viability, T/C was 78.9%.

For `CCc1cc2c(N3CCc4c(cc(Cn5ccnc5)cc4-c4cn(C)nc4C(F)(F)F)C3=O)cc(C)nc2c(OC)n1` + Nc1ccc(C#CCN(C(=O)Cc2ncc(C(F)(F)F)cc2C(F)(F)F)c2ccc(F)cc2)nn1, the viability, T/C is 108%.

As to `COc1cc2cc(C(=O)CCC(=O)O)sc2cc1OC` + Nc1ccc(C#CCN(C(=O)Cc2ncc(C(F)(F)F)cc2C(F)(F)F)c2ccc(F)cc2)nn1, the viability, T/C was 105%.

As to `O=C(Nc1ccc(O)c(NS(=O)(=O)c2ccc(F)cc2)c1)c1ccc(-c2ccccc2)cc1` + Nc1ccc(C#CCN(C(=O)Cc2ncc(C(F)(F)F)cc2C(F)(F)F)c2ccc(F)cc2)nn1, the viability, T/C was 115%.

Staying with this test, now noted: second compound 1 µM; first compound 0.1 µM; stronger effect = lower value.
In the case of `C#Cc1c(F)ccc2cc(O)cc(-c3ncc4c(N5CC6CCC(C5)N6)nc(OCC56CCCN5CC(F)C6)nc4c3F)c12` (stereo unspecified) + Nc1ccc(C#CCN(C(=O)Cc2ncc(C(F)(F)F)cc2C(F)(F)F)c2ccc(F)cc2)nn1, the viability, T/C is 99.8%.

Consider `CC1COCCN1c1cc(C2(O)CC3CCC(C2)O3)c2cnn(-c3ccn[nH]3)c2n1` (stereo unspecified) + Nc1ccc(C#CCN(C(=O)Cc2ncc(C(F)(F)F)cc2C(F)(F)F)c2ccc(F)cc2)nn1, for which the viability, T/C was 69.5%.

Regarding `CCc1cc2c(N3CCc4c(cc(Cn5ccnc5)cc4-c4cn(C)nc4C(F)(F)F)C3=O)cc(C)nc2c(OC)n1` + Nc1ccc(C#CCN(C(=O)Cc2ncc(C(F)(F)F)cc2C(F)(F)F)c2ccc(F)cc2)nn1, the viability, T/C is 86.4%.

Regarding `COc1cc2cc(C(=O)CCC(=O)O)sc2cc1OC` + Nc1ccc(C#CCN(C(=O)Cc2ncc(C(F)(F)F)cc2C(F)(F)F)c2ccc(F)cc2)nn1, the viability, T/C was 106%.

Regarding `O=C(Nc1ccc(O)c(NS(=O)(=O)c2ccc(F)cc2)c1)c1ccc(-c2ccccc2)cc1` + Nc1ccc(C#CCN(C(=O)Cc2ncc(C(F)(F)F)cc2C(F)(F)F)c2ccc(F)cc2)nn1, the viability, T/C is 109%.

Staying with this test, now noted: second compound 1 µM; first compound 0.316 µM; stronger effect = lower value.
Turning to `C#Cc1c(F)ccc2cc(O)cc(-c3ncc4c(N5CC6CCC(C5)N6)nc(OCC56CCCN5CC(F)C6)nc4c3F)c12` (stereo unspecified) + Nc1ccc(C#CCN(C(=O)Cc2ncc(C(F)(F)F)cc2C(F)(F)F)c2ccc(F)cc2)nn1, the viability, T/C is 105%.

Broadly, the viability, T/C is the ratio of treated to control.
